Values joined by “and” are separate entries in the source; they are usually repeats but may differ in a detail not shown here. Equal entries are not always repeated. Toxic doses and inconclusive results are not listed. Cut-off read from the data, not from the text of the source: active = T/C of 150% or more; inactive = T/C below 125%.
Tested on: L1210 leukemia ip in BDF1 mice, survival T/C
Assay: NCI In Vivo Anticancer Drug Screen. Data for tumor model L1210 Leukemia (intraperitoneal) in B6D2F1 (BDF1) mice
Conditions: endpoint: mean survival time, higher = longer survival
Method in brief: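 Each compound was tested against a transplantable tumor grown in mice. The endpoint was survival, with treated animals benchmarked against vehicle controls as a simple ratio.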

[1] = dose: 100.0 mg/kg/injection, schedule: Q01DX001 (ip), vehicle: saline
[2] = dose: 100.0 mg/kg/injection, schedule: Q04DX002 (ip), vehicle: Klucel (hydroxypropylcellulose) (HPC)
[3] = dose: 200.0 mg/kg/injection, schedule: Q04DX002 (ip), vehicle: Klucel (hydroxypropylcellulose) (HPC)
[4] = dose: 100.0 mg/kg/injection, schedule: Q04DX003 (ip), vehicle: Klucel (hydroxypropylcellulose) (HPC)
[5] = dose: 200.0 mg/kg/injection, schedule: Q04DX003 (ip), vehicle: Klucel (hydroxypropylcellulose) (HPC)
[6] = dose: 400.0 mg/kg/injection, schedule: Q04DX003 (ip), vehicle: Klucel (hydroxypropylcellulose) (HPC)
[7] = dose: 100.0 mg/kg/injection, schedule: Q01DX009 (ip), vehicle: saline with Tween-80
[8] = dose: 200.0 mg/kg/injection, schedule: Q01DX009 (ip), vehicle: saline with Tween-80
[9] = dose: 100.0 mg/kg/injection, schedule: Q04DX003 (ip), vehicle: saline
[10] = dose: 100.0 mg/kg/injection, schedule: Q01DX009 (ip), vehicle: saline

Measured: T/C

COc1c(Cl)cc2c(c1OC)N(C)C1N3C(=O)C4(C)SSC3(C(=O)N4C)C(O)C21O (stereo unspecified)
inactive: dose: 0.12 mg/kg/injection, schedule: Q01DX009 (ip), vehicle: Klucel (hydroxypropylcellulose) (HPC) 106 % of control | dose: 0.25 mg/kg/injection, schedule: Q01DX009 (ip), vehicle: Klucel (hydroxypropylcellulose) (HPC) 101 % of control | dose: 0.5 mg/kg/injection, schedule: Q01DX009 (ip), vehicle: Klucel (hydroxypropylcellulose) (HPC) 110 % of control | dose: 1.0 mg/kg/injection, schedule: Q01DX009 (ip), vehicle: Klucel (hydroxypropylcellulose) (HPC) 108 % of control

CC(=O)Nc1ccc(/C=N/Nc2c3ccccc3nc3ccccc23)cc1
inactive: [1] 108 % of control

CCCCCC#CC(=O)OCCC
inactive: [2] 97 % of control | [3] 101 % of control | dose: 400.0 mg/kg/injection, schedule: Q04DX002 (ip), vehicle: Klucel (hydroxypropylcellulose) (HPC) 101 % of control

CC(CO)(C(=O)O)c1ccccc1 (stereo unspecified)
inactive: dose: 55.0 mg/kg/injection, schedule: Q01DX Z (ip), vehicle: saline 103 % of control | dose: 83.0 mg/kg/injection, schedule: Q01DX Z (ip), vehicle: saline 96 % of control | dose: 125.0 mg/kg/injection, schedule: Q01DX Z (ip), vehicle: saline 94 % of control

NC(=O)CC1CCCCC1
inactive: [4] 97 % of control | [5] 105 % of control | [6] 103 % of control

CCCCCC(C(C)=O)(C1=NC(C)(C)CC(C)O1)c1ccccc1 (stereo unspecified)
inactive: dose: 100.0 mg/kg/injection, schedule: Q04DX003 (ip), vehicle: saline sonified 103 % of control | dose: 200.0 mg/kg/injection, schedule: Q04DX003 (ip), vehicle: saline sonified 120 % of control | dose: 400.0 mg/kg/injection, schedule: Q04DX003 (ip), vehicle: saline sonified 111 % of control

ClC(Cl)(c1ccccc1)C1(c2ccccc2)CC1
inactive: dose: 75.0 mg/kg/injection, schedule: Q01DX001 (ip), vehicle: acetone 107 % of control | dose: 150.0 mg/kg/injection, schedule: Q01DX001 (ip), vehicle: acetone 109 % of control

COc1ccc(C)cc1NC(=O)SCCSC(=O)Nc1cc(C)ccc1OC
inactive: [7] 100 % of control | [8] 87 % of control

O=[N+]([O-])c1cc(Br)ccc1O
inactive: [9] 100 % of control | dose: 200.0 mg/kg/injection, schedule: Q04DX003 (ip), vehicle: saline 89 % of control

CC(C)N(CCCOC(=O)c1ccc(N)cc1)C(C)C
inactive: dose: 25.0 mg/kg/injection, schedule: Q01DX009 (ip), vehicle: saline 95 % of control | dose: 50.0 mg/kg/injection, schedule: Q01DX009 (ip), vehicle: saline 109 % of control | [10] 106 % of control | [9] 105 % of control

Cc1ccc(S(=O)(=O)N(CCO)CCO)cc1
inactive: [4] 101 % of control | [5] 100 % of control | [6] 92 % of control

COc1ccc2nc3cc(Cl)ccc3c(NCCC[N+](C)(C)CCCCCCCCCC[N+](C)(C)CCCNc3c4ccc(Cl)cc4nc4ccc(OC)cc34)c2c1
inactive: dose: 0.78 mg/kg/injection, schedule: Q01DX009 (ip), vehicle: saline with Tween-80 102 % of control | dose: 1.56 mg/kg/injection, schedule: Q01DX009 (ip), vehicle: saline with Tween-80 94 % of control and 100 % of control | dose: 3.13 mg/kg/injection, schedule: Q01DX009 (ip), vehicle: saline with Tween-80 100 % of control and 101 % of control | dose: 6.25 mg/kg/injection, schedule: Q01DX009 (ip), vehicle: saline with Tween-80 106 % of control

O=C(O)C1OC1(c1cccc(Cl)c1)c1ccccc1Cl (stereo unspecified)
inactive: dose: 100.0 mg/kg/injection, schedule: Q01DX001 (ip), vehicle: olive oil, sesame oil, peanut oil 101 % of control | dose: 200.0 mg/kg/injection, schedule: Q01DX001 (ip), vehicle: olive oil, sesame oil, peanut oil 106 % of control

CC(=O)Nc1ccc(S(=O)(=O)Nc2cc(C)c(C)cc2C)cc1
inactive: [2] 103 % of control | [3] 91 % of control

CC(=Nc1cccc(C)c1C)c1c(O)cc(C)oc1=O
inactive: [10] 108 % of control | dose: 200.0 mg/kg/injection, schedule: Q01DX009 (ip), vehicle: saline 97 % of control | dose: 400.0 mg/kg/injection, schedule: Q01DX009 (ip), vehicle: saline 103 % of control

COC1OCC(O)C(NC(C)=O)C1O (stereo unspecified)
inactive: [1] 105 % of control | dose: 200.0 mg/kg/injection, schedule: Q01DX001 (ip), vehicle: saline 107 % of control | dose: 400.0 mg/kg/injection, schedule: Q01DX001 (ip), vehicle: saline 100 % of control

Nc1ccc([N+](=O)[O-])cc1C(O)(C(F)(F)F)C(F)(F)F (tested in a mixture with another compound)
inactive: [7] 101 % of control | dose: 100.0 mg/kg/injection, schedule: Q04DX003 (ip), vehicle: saline with Tween-80 101 % of control | [8] 94 % of control | dose: 200.0 mg/kg/injection, schedule: Q04DX003 (ip), vehicle: saline with Tween-80 100 % of control | dose: 400.0 mg/kg/injection, schedule: Q04DX003 (ip), vehicle: saline with Tween-80 97 % of control

CCOC(=O)/C(=N/N=C(N)N)c1c(C)[nH]c2ccccc12
inactive: dose: 15.0 mg/kg/injection, schedule: Q01DX Z (ip), vehicle: carboxymethylcellulose (CMC) 102 % of control | dose: 30.0 mg/kg/injection, schedule: Q01DX Z (ip), vehicle: carboxymethylcellulose (CMC) 100 % of control | dose: 60.0 mg/kg/injection, schedule: Q01DX Z (ip), vehicle: carboxymethylcellulose (CMC) 95 % of control and 100 % of control | dose: 120.0 mg/kg/injection, schedule: Q01DX Z (ip), vehicle: carboxymethylcellulose (CMC) 93 % of control and 100 % of control | dose: 240.0 mg/kg/injection, schedule: Q01DX Z (ip), vehicle: carboxymethylcellulose (CMC) 100 % of control | dose: 240.0 mg/kg/injection, schedule: Q01DX Z (sc), vehicle: carboxymethylcellulose (CMC) 112 % of control | dose: 480.0 mg/kg/injection, schedule: Q01DX Z (ip), vehicle: carboxymethylcellulose (CMC) 90 % of control | dose: 480.0 mg/kg/injection, schedule: Q01DX Z (sc), vehicle: carboxymethylcellulose (CMC) 114 % of control | dose: 960.0 mg/kg/injection, schedule: Q01DX Z (sc), vehicle: carboxymethylcellulose (CMC) 120 % of control | dose: 1920.0 mg/kg/injection, schedule: Q01DX Z (sc), vehicle: carboxymethylcellulose (CMC) 103 % of control

C1CCC2OC3(CC2C1)OC1CCCCC1O3 (stereo unspecified)
inactive: dose: 75.0 mg/kg/injection, schedule: Q04DX002 (ip), vehicle: saline + alcohol 101 % of control | dose: 150.0 mg/kg/injection, schedule: Q04DX002 (ip), vehicle: saline + alcohol 116 % of control | dose: 300.0 mg/kg/injection, schedule: Q04DX002 (ip), vehicle: saline + alcohol 105 % of control

Nc1ccccc1C(=O)O
inactive: dose: 50.0 mg/kg/injection, schedule: Q01DX001 (ip), vehicle: carboxymethylcellulose (CMC) 98 % of control | dose: 100.0 mg/kg/injection, schedule: Q01DX001 (ip), vehicle: carboxymethylcellulose (CMC) 91 % of control | dose: 178.0 mg/kg/injection, schedule: Q01DX001 (ip), vehicle: carboxymethylcellulose (CMC) 92 % of control | dose: 200.0 mg/kg/injection, schedule: Q01DX001 (ip), vehicle: carboxymethylcellulose (CMC) 91 % of control | dose: 267.0 mg/kg/injection, schedule: Q01DX001 (ip), vehicle: carboxymethylcellulose (CMC) 94 % of control | dose: 400.0 mg/kg/injection, schedule: Q01DX001 (ip), vehicle: carboxymethylcellulose (CMC) 92 % of control | dose: 600.0 mg/kg/injection, schedule: Q01DX001 (ip), vehicle: carboxymethylcellulose (CMC) 92 % of control

CC(C)(C)C1CCC2(CC1)CCN(CCCN1CCCCCC1)CC2
inactive: dose: 50.0 mg/kg/injection, schedule: Q01DX001 (ip), vehicle: saline 96 % of control | [1] 107 % of control

From PubChem BioAssay AID248 (DTP/NCI, 2004)
